# Results reported in publication PMC7179994 (Thrombosis and haemostasis, 2019).
# Assays:
# [1] = system: leukocyte (neutrophil) infiltration into the peritoneum, wild-type C57BL/6J mice; test: Mouse model of peritonitis, leukocyte infiltration, wild-type mice; format: in vivo; settings: 0.8 μM i.v. in 200 μL PBS, without (β15–44)2, 4 hours, n = 7
# [2] = system: transendothelial migration of leukocytes; settings: fibrinogen; cited from earlier work
molecule,measurement,setting,value
CN1CCN(CCOc2cc(OC3CCOCC3)c3c(Nc4c(Cl)ccc5c4OCO5)ncnc3c2)CC1 [Saracatinib],"Infiltration of leukocytes, Fyn inhibitor alone",[1],no effect on infiltration of leukocytes
fibrinogen,Transendothelial migration of leukocytes,[2],promotes transendothelial migration of leukocytes
